From ChEMBL document CHEMBL4371042, “Molecular Mechanism of Inhibition of Acid Ceramidase by Carmofur” (J Med Chem, 2019)

Target: T1, Acid ceramidase (Homo sapiens, UniProt Q13510)
T1 sequence (Q13510 whole entry): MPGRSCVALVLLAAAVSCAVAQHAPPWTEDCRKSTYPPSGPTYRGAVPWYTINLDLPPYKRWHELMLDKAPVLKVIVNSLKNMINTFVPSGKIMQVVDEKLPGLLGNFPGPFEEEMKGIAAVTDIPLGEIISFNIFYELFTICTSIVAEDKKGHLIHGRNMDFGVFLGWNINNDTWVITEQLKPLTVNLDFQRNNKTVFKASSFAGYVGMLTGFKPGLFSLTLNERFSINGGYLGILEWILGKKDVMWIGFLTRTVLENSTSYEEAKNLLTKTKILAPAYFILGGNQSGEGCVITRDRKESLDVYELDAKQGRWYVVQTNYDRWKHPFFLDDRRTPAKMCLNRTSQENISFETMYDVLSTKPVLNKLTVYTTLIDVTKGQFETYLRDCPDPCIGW
Experiment: Non-competitive inhibition of human acid ceramidase

- Ki: 64 nM
Compound: O=C(NCCCCc1ccccc1)n1c(=O)oc2ccccc21
